Measurements from patent US9476099B2 (TRUSTEES OF DARTMOUTH COLLEGE, priority 2012, dated 2016).
“And” between values parts separate entries of the source, which are not always exact repeats. Equal values may be shown once.

System: NT2/D1-R1 control and DNMT3B knockdown cells
Assay: Genome-wide expression analysis with PAM clusters, control and DNMT3B knockdown cells (Tables 8-14)
Conditions: sh-3B + aza; 10 nM decitabine, 3 days

SMILES: Nc1ncn([C@H]2C[C@H](O)[C@@H](CO)O2)c(=O)n1 [aza]
- ADAMTSL2 NM_014694 expression Mean: 202.775
- ADM NM_001124 expression Mean: 446.451
- AFMID NM_0010109 expression Mean: 172.091
- AHNAK NM_001620 expression Mean: 254.833
- ANAPC13 NM_015391 expression Mean: 377.446
- ANXA1 NM_000700 expression Mean: 394.045
- ANXA2 NM_0010028 expression Mean: 2283.3
- AW972815 expression Mean: 584.452
- BAG3 NM_004281 expression Mean: 816.89
- BCL11A NM_022893 expression Mean: 345.798
- BIRC5 NM_001168 expression Mean: 423.791
- BTG2 NM_006763 expression Mean: 242.194
- C9orf6 NM_017832 expression Mean: 227.753
- C10orf2 NM_021830 expression Mean: 399.327
- C10orf58 NM_032333 expression Mean: 578.039
- C16orf93 NM_0010149 expression Mean: 214.657
- CA2 NM_000067 expression Mean: 486.868
- CATSPER2 NM_172097 expression Mean: 970.22
- CAV1 NM_001753 expression Mean: 402.328
- CCND1 NM_053056 expression Mean: 1996.23
- CDKN1A NM_000389 expression Mean: 619.606
- CDX1 NM_001804 expression Mean: 237.199
- CEACAM1 NM_0010249 expression Mean: 156.04
- CIRH1A NM_032830 expression Mean: 1424.13
- CLCF1 NM_013246 expression Mean: 200.181
- CLDN10 NM_006984 expression Mean: 222.057
- CNN3 NM_001839 expression Mean: 732.909
- COL7A1 NM_000094 expression Mean: 746.239
- COL17A1 NM_000494 expression Mean: 230.283
- CRABP2 NM_001878 expression Mean: 1011.8
- CRIPT NM_014171 expression Mean: 325.647
- CTNNB1 NM_0010982 expression Mean: 258.366
- CUEDC1 NM_017949 expression Mean: 215.515
- CXCL14 NM_004887 expression Mean: 194.723
- CXXC1 NM_014593 expression Mean: 1121.15
- CXorf40A NM_178124 expression Mean: 203.34
- CYR61 NM_001554 expression Mean: 338.671
- DDX51 NM_175066 expression Mean: 1008.46
- DIMT1L NM_014473 expression Mean: 616.311
- DUSP5 NM_004419 expression Mean: 1159.02
- EBI3 NM_005755 expression Mean: 333.316
- EIF2C2 NM_012154 expression Mean: 367.506
- ELF3 NM_004433 expression Mean: 204.8
- ELF4 NM_001421 expression Mean: 365.338
- EMILIN2 NM_032048 expression Mean: 230.192
- EOMES NM_005442 expression Mean: 289.321
- FAM53C NM_016605 expression Mean: 1227.05
- FAM123B NM_152424 expression Mean: 759.762
- FLJ40504 NM_173624 expression Mean: 1376.6
- FOXO3 NM_201559 expression Mean: 274.369
- GAD1 NM_000817 expression Mean: 204.457
- GAD1 NM_013445 expression Mean: 246.924
- GALNAC4S-6 NM_015892 expression Mean: 540.521
- GEMIN4 NM_015721 expression Mean: 784.75
- GLIPR2 NM_022343 expression Mean: 227.407
- GNL3L NM_019067 expression Mean: 289.661
- GNL3 NM_206826 expression Mean: 1810.36
- GPATCH4 NM_182679 expression Mean: 927.016
- GPER NM_0010399 expression Mean: 176.693
- GPR56 NM_201524 expression Mean: 189.936
- GPR56 NM_201525 expression Mean: 205.229
- GPR177 NM_0010022 expression Mean: 158.032 and 231.861
- GPR177 NM_024911 expression Mean: 239.092
- GTF3C6 NM_138408 expression Mean: 454.993
- H2AFY NM_004893 expression Mean: 843.815
- HARS NM_002109 expression Mean: 1283.03
- HCLS1 NM_005335 expression Mean: 494.474
- HES2 NM_019089 expression Mean: 164.558
- HSPA1A NM_005346 expression Mean: 348.731
- HSPA8 NM_006597 expression Mean: 3799.27
- HSPA8 NM_153201 expression Mean: 4636.48
- HSPH1 NM_006644 expression Mean: 389.459
- ID3 NM_002167 expression Mean: 1623.89
- IER3 NM_003897 expression Mean: 406.859
- IL2RB NM_000878 expression Mean: 175.269
- ITPRIP NM_033397 expression Mean: 226.046
- JTV1 NM_006303 expression Mean: 1336.75
- KAT2A NM_021078 expression Mean: 704.033
- KIAA0101 NM_014736 expression Mean: 230.187
- KRT8 NM_002273 expression Mean: 2758.76
- LEFTY2 NM_003240 expression Mean: 2484.87
